In patent US7655233B2 (priority 2005, dated 2010):

Test system: Vesicular Stomatitis Virus

Polysorbate 80
virus inactivation by excipient: no appreciable virus inactivation occurred
